Measurements as given in patent publication US20030211942A1, “Aryl sulfonyl amino carbonyl triazole based selective herbicides” (priority 2000, published 2003).
Several values for one entry are separate records, joined by “and”; a condition that tells them apart may be missing. Identical values can stand only once.

Legend:
Experiment in all cases: Post-emergence/greenhouse herbicidal test
Format in all cases: in vivo
Abutilon theophrasti = details: post-emergence, about 3 weeks
Description: (§1) Procarbazone- and flucarbazone-sodium were used as 70 WG formulation. Fenoxaprop-P-ethyl was used in a mixture with mefenpyr-diethyl (75 g of mefenpyr-diethyl/l) as Ralon® Super 69 EW. Cinidon-ethyl and florasulam and iodosufuron in a mixture with mefenpyr-diethyl were used in the form of the finished formulations Lotus® 200 EC, Primus® 50 SC and Hussar® 5 WG (15% mefenpyr-diethyl), respectively. Amicarbazone was used as 70 WG formulation.
(§2) In pre- and post-emergence experiments, the spray liquor is usually admixed with a surfactant (Renex 36), at a concentration of 0.1%.
(§3) Test plants are grown under controlled conditions (temperature and light).
(§4) Following the spray application, the plant containers are kept in a greenhouse under constant light and temperature conditions.
(§5) After about 3 weeks, the degree of damage to the plants is rated in % damage in comparison to the development of the untreated control.
(§6) 0% =no damage (like untreated control)
(§7) 100% =total destruction/damage

Alopecurus myosuroides = details: post-emergence, about 3 weeks
Description: as §1, §2, §3, §4, §5, §6, §7

Amaranthus retroflexus = details: post-emergence, about 3 weeks
Description: as §1, §2, §3, §4, §5, §6, §7

Avena fatua = test system: Avena fatua
Description: as §1, §2, §3, §4, §5, §6, §7

Bromus secalinus = details: post-emergence, about 3 weeks
Description: as §1, §2, §3, §4, §5, §6, §7

Cassia tora = test system: Cassia tora
Description: as §1, §2, §3, §4, §5, §6, §7

Chenopodium album = details: post-emergence, about 3 weeks
Description: as §1, §2, §3, §4, §5, §6, §7

Datura strumarium = details: post-emergence, about 3 weeks
Description: as §1, §2, §3, §4, §5, §6, §7

Digitaria sanguinalis = details: post-emergence, about 3 weeks
Description: as §1, §2, §3, §4, §5, §6, §7

Echinochloa crus-galli = test system: Echinochloa crus-galli
Description: as §1, §2, §3, §4, §5, §6, §7

Eriochloa villosa = details: 60 g of ai/ha, post-emergence, about 3 weeks
Description: as §1, §2, §3, §4, §5, §6, §7

Galium aparine = details: post-emergence, about 3 weeks
Description: as §1, §2, §3, §4, §5, §6, §7

Lolium perenne = details: post-emergence, about 3 weeks
Description: as §1, §2, §3, §4, §5, §6, §7

Matricaria inodora = test system: Matricaria inodora
Description: as §1, §2, §3, §4, §5, §6, §7

Polygonum convolvolus = details: post-emergence, about 3 weeks
Description: as §1, §2, §3, §4, §5, §6, §7

Stellaria media = details: post-emergence, about 3 weeks
Description: as §1, §2, §3, §4, §5, §6, §7

Veronica persicaria = details: 60 g of ai/ha, post-emergence, about 3 weeks
Description: as §1, §2, §3, §4, §5, §6, §7

Viola arvensis = details: post-emergence, about 3 weeks
Description: as §1, §2, §3, §4, §5, §6, §7

Xanthium strumarium = details: post-emergence, about 3 weeks
Description: as §1, §2, §3, §4, §5, §6, §7

[1] = 15 g of ai/ha, post-emergence, about 3 weeks
[2] = 30 g of ai/ha, post-emergence, about 3 weeks
[3] = 60 g of ai/ha, post-emergence, about 3 weeks

## COc1nn(C(=O)NS(=O)(=O)c2ccccc2OC(F)(F)F)c(=O)n1C [Flucarbazone-sodium, 2-(2-trifluoromethoxy-phenylsulphonylaminocarbonyl)-4-methyl-5-methoxy-2,4-dihydro-3H-1,2,4-triazol-3-one]
Abutilon theophrasti; 15 g of ai/ha
  Abutilon theophrasti observed: 0%
Abutilon theophrasti; 30 g of ai/ha
  Abutilon theophrasti observed: 0%
Abutilon theophrasti; 60 g of ai/ha
  Abutilon theophrasti observed: 0%
Alopecurus myosuroides; 15 g of ai/ha
  Alopecurus myosuroides observed: 70%
Alopecurus myosuroides; 30 g of ai/ha
  Alopecurus myosuroides observed: 70%
Alopecurus myosuroides; 60 g of ai/ha
  Alopecurus myosuroides observed: 70%
Amaranthus retroflexus; 15 g of ai/ha
  Amaranthus retroflexus observed: 90%
Amaranthus retroflexus; 30 g of ai/ha
  Amaranthus retroflexus observed: 90%
Amaranthus retroflexus; 60 g of ai/ha
  Amaranthus retroflexus observed: 90%
Avena fatua; [1]
  Avena fatua observed: 80%
Avena fatua; [2]
  Avena fatua observed: 90%
Avena fatua; [3]
  Avena fatua observed: 90%
Avena fatua; Table B-62, application rate 15 g ai/ha
  Avena fatua observed: 80
Avena fatua; application rate 15 g ai/ha
  Avena fatua observed: 70
Avena fatua; application rate 30 g ai/ha
  Avena fatua observed: 70
Avena fatua; application rate 60 g ai/ha
  Avena fatua observed: 70
Bromus secalinus; 15 g of ai/ha
  Bromus secalinus observed: 70%
Bromus secalinus; 30 g of ai/ha
  Bromus secalinus observed: 70% and 90%
Bromus secalinus; 60 g of ai/ha
  Bromus secalinus observed: 80% and 90%
Cassia tora; [1]
  Cassia tora observed: 50%
Cassia tora; [2]
  Cassia tora observed: 50%
Cassia tora; [3]
  Cassia tora observed: 50%
Cassia tora; application rate 15 g ai/ha
  Cassia tora observed: 0
Chenopodium album; 15 g of ai/ha
  Chenopodium album observed: 50%
Chenopodium album; 30 g of ai/ha
  Chenopodium album observed: 50%
Chenopodium album; 60 g of ai/ha
  Chenopodium album observed: 70%
Datura strumarium; 15 g of ai/ha
  Datura strumarium observed: 70%
Datura strumarium; 60 g of ai/ha
  Datura strumarium observed: 80%
Digitaria sanguinalis; 30 g of ai/ha
  Digitaria sanguinalis observed: 20%
Digitaria sanguinalis; 60 g of ai/ha
  Digitaria sanguinalis observed: 20%
Echinochloa crus-galli; [1]
  Echinochloa crus-galli observed: 50%
Echinochloa crus-galli; [3]
  Echinochloa crus-galli observed: 90%
Echinochloa crus-galli; application rate 15 g ai/ha
  Echinochloa crus-galli observed: 60
Echinochloa crus-galli; application rate 30 g ai/ha
  Echinochloa crus-galli observed: 70
Echinochloa crus-galli; application rate 60 g ai/ha
  Echinochloa crus-galli observed: 90
Eriochloa villosa
  Eriochloa villosa observed: 70%
Galium aparine; 15 g of ai/ha
  Galium aparine observed: 0%
Galium aparine; 30 g of ai/ha
  Galium aparine observed: 0%
Galium aparine; 60 g of ai/ha
  Galium aparine observed: 0%
Lolium perenne; 15 g of ai/ha
  Lolium perenne observed: 80%
Lolium perenne; 30 g of ai/ha
  Lolium perenne observed: 90%
Lolium perenne; 60 g of ai/ha
  Lolium perenne observed: 90%
Matricaria inodora; [3]
  Matricaria inodora observed: 20%
Matricaria inodora; application rate 15 g ai/ha
  Matricaria inodora observed: 20
Matricaria inodora; application rate 30 g ai/ha
  Matricaria inodora observed: 60
Matricaria inodora; application rate 60 g ai/ha
  Matricaria inodora observed: 60
Polygonum convolvolus; 15 g of ai/ha
  Polygonum convolvolus observed: 60%
Polygonum convolvolus; 30 g of ai/ha
  Polygonum convolvolus observed: 70%
Polygonum convolvolus; 60 g of ai/ha
  Polygonum convolvolus observed: 70%
Stellaria media; 15 g of ai/ha
  Stellaria media observed: 0%
Stellaria media; 30 g of ai/ha
  Stellaria media observed: 60%
Stellaria media; 60 g of ai/ha
  Stellaria media observed: 95%
Veronica persicaria
  Veronica persicaria observed: 0%
Viola arvensis; 15 g of ai/ha
  Viola arvensis observed: 60% and 50% and 80%
Viola arvensis; 30 g of ai/ha
  Viola arvensis observed: 50%
Viola arvensis; 60 g of ai/ha
  Viola arvensis observed: 50%
Xanthium strumarium; 15 g of ai/ha
  Xanthium strumarium observed: 20%
Xanthium strumarium; 30 g of ai/ha
  Xanthium strumarium observed: 40%
Xanthium strumarium; 60 g of ai/ha
  Xanthium strumarium observed: 60%
